Experimental data reported in patent US8552193B2, “Alternative forms of the phosphodiesterase-4 inhibitor N-cyclopropyl-1-{3-[(1-oxidopryidin-3-yl)ethynyl]phenyl}-4-oxo-1,4-dihydro-1,8-naphthyridine-3-carboxyamide” (Merck Sharp & Dohme Corp., priority 2004, dated 2013).

What was measured:
[1] = Hygroscopicity: moisture sorption isotherms on a dynamic moisture balance; type: physicochemical
Method: The moisture sorption isotherms of Form V was determined at 25° C. using a dynamic moisture balance (MB-300G) (VTI Corp., Hialeah, Fla.) calibrated for weight with 10 to 100 mg standard weights and for moisture with polyvinylpyrrolidone. The value for the weight equilibrium criterion for each relative humidity is calculated based on the weight of the sample and the drift in the balance (0.001 mg). A value of 8 min. was used for the time criteria. The moisture sorption profile of the dihydrate (Form V) (Adsorption 1/Desorption 1) after drying in vacuo for 2 h is shown in FIG. 5. Form V dehydrates on drying to a different crystal form as shown by vacuum X-ray powder diffraction in FIG. 6, losing approximately 8% by weight. For purposes of this specification, this dehydrated dihydrate is identified as […]. This form appears to be the same as that obtained by heating the sample at 125° C., but different from that obtained on drying at 60° C. in air for 24 h. The latter form is identified as Form III. The Form II (dehydrated dihydrate) is hygroscopic converting to a hemihydrate between ca. 10-40% RH and a tetrahydrate at 90% RH (FIG. 5 and FIG. 7). However, the XRPD pattern for the hemihydrate is the same as that of the dehydrated dihydrate (Form II). For purposes of this specification this hemihydrate and tetrahydrate are identified as Form II and Form IV, respectively.
Form I is non-hygroscopic with a maximum weight change of ca. 1% at 90% RH. On desorption, the tetrahydrate (Form IV) remains unchanged between 90-60% RH but converts to dihydrate (Form V) at 45-15% RH (FIG. 5 and FIG. 8).
Since the X-ray diffraction patterns of the dehydrated dihydrate and the hemihydrate are the same, we conclude that the hemihydrate is isostructural with the dehydrated dihydrate form obtained on drying in vacuo. […]

[2] = Thermal stability: heating the sample for 24 h at 60° C. in air; type: physicochemical
Method: The thermal stability of the Form V was evaluated by heating the sample for 24 h at 60° C. in air. The dihydrate (Form V) readily dehydrates within 10 min of heating losing approximately 8.5% by weight (corresponding to ca. 2 moles of water per mole base).

Row | Hygroscopicity (in words) ([1]; 25° C., dynamic moisture balance) | maximum weight change ([1]; at 90% RH, 25° C.) | Molecule | time of heating until dehydration [2] | weight lost on heating (dehydration) [2] | weight lost on drying (dehydration to a different crystal form) ([1]; drying in vacuo for 2 h)
1 | non-hygroscopic | ca. 1% | O=C(NC1CC1)c1cn(-c2cccc(C#Cc3ccc[n+]([O-])c3)c2)c2ncccc2c1=O [Form I, N-Cyclopropyl-1-{3-[(1-oxidopryidin-3-yl)ethynyl]phenyl}-4-oxo-1,4-dihydro-1,8-naphthyridine-3-carboxyamide] | – | – | –
2 | – | – | Compound IX Dihydrate [Dihydrate (Form V)] | ≤ 10 min | approximately 8.5 % by weight | approximately 8 % by weight
